Data from US20160102002A1, “WATER TREATMENT” (BWA WATER ADDITIVES UK LIMITED, priority 2014, published 2016).

What was measured:
Desulfovibrio vulgaris = experiment: Log10 reduction of viable anaerobic bacteria in dosed high-TDS suspension (serial dilution into API RP 38 media vials); assay type: cell-based; conditions: pH 7 phosphate buffer, room temperature, ppm per example
Experimental: (§1) A suspension of Desulfovibrio vulgaris plus Enterobacter aerogenes bacteria containing from 1×10^6 to 1×10^8 cells/mL was prepared in sterile pH 7 phosphate buffer containing varying levels of sodium chloride to give the desired total dissolved solids (TDS) concentration. Aliquots of this suspension were dosed with the indicated concentrations of phosphonium compound (a) and stabilised halogen containing composition (b) with the concentrations being measured as ppm by weight of the stated composition in the dosed suspension. The mixtures were allowed to stand at room temperature. At the designated contact times, each mixture was sampled to determine the total number of viable cells of both Desulfovibrio vulgaris and Enterobacter aerogenes by serial 10-fold dilution into API RP 38 media vials and anaerobic acid producing media vials, respectively. The vials were incubated at 37° C. for 72 hours. Results were recorded as cells per milliliter. […]
(§2) The efficacy of the treatment agents was evaluated by measuring the Log 10 Reduction of the anaerobic bacterium Desulfovibrio vulgaris and the facultative anaerobeic bacterium Enterobacter aerogenes after contact times of 1 hour and 24 hours as detailed in Tables 1 and 2. […]

Enterobacter aerogenes = experiment: Log10 reduction of viable facultative anaerobic bacteria in dosed high-TDS suspension (serial dilution into anaerobic acid producing media vials); assay type: cell-based; conditions: pH 7 phosphate buffer, room temperature, ppm per example
Experimental: as §1, §2

[1] = TDS 100,000 mg l^-1, contact time 1 hour
[2] = TDS 100,000 mg l^-1, contact time 24 hours

Compound | Log10 Reduction Anaerobes (Desulfovibrio vulgaris; [1]) | Log10 Reduction Facultative Anaerobes (Enterobacter aerogenes; [1]) | Log10 Reduction Anaerobes (Desulfovibrio vulgaris; [2]) | Log10 Reduction Facultative Anaerobes (Enterobacter aerogenes; [2])
CCCCCCCCCCCCCC[P+](CCCC)(CCCC)CCCC.[Cl-] [Example 3, tri n-butyl n-tetradecyl phosphonium chloride] | 0 | 0 |  | 
CCCCCCCCCCCCCC[P+](CCCC)(CCCC)CCCC.[Cl-] [Example 17, tri n-butyl n-tetradecyl phosphonium chloride] |  |  | 0 | 0
